Data as given in patent publication US20230135894A1, “MK2 DEGRADERS AND USES THEREOF” (Kymera Therapeutics, Inc., priority 2021, published 2023).

Assays:
MK2 [1] = target: T1, MK2 (Homo sapiens, UniProt P49137); test: MK2 degradation in human THP-1 monocytic cells (MSD, 24 h); type: cell-based; set-up: endogenous in cells; settings: for Dmax: THP-1, THP-1 cells; for DC50: THP-1 cells, read-out: MK2 MSD THP-1 degradation 24 h GMean External Abs DC50
Method in brief: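 Readout: residual MK2 protein in THP-1 lysates, measured by MSD electrochemiluminescence sandwich assay after 24 h compound exposure (≤10-point serial dilutions, 0.1% DMSO, 37 °C). Curves normalised between lysis-buffer and DMSO-cell signals; DC50 by 4-parameter logistic fit.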

MK2 [2] = target: T1, MK2; test: MK2 degradation in human SW1353 cells (MSD, 24 h); type: cell-based; set-up: endogenous in cells; host or cells: SW-1353 (ATCC HTB-94); key to MK2 MSD SW1353 degradation 24 h GMean External Abs DC50: A (<0.001 μM); B (0.001-0.01 μM); C (0.01-0.1 μM); D (>0.1 μM); —: “-”=not tested or inactive; key to MK2 MSD SW 1353 24 h Dmax %: —: “-”=not tested or inactive; settings: for Dmax: read-out: MK2 MSD SW 1353 24 h Dmax %; for DC50: read-out: MK2 MSD SW1353 degradation 24 h GMean External Abs DC50
Method in brief: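 DC50 derived by 4-parameter logistic fit, with DMSO-treated signal as top and lysis-buffer signal as bottom. Remaining MK2 was measured by MSD electrochemiluminescent sandwich assay in RIPA lysates of human SW1353 cells exposed for 24 h at 37 °C to serially diluted compound in 0.1% DMSO.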

T1 sequence (P49137 whole entry): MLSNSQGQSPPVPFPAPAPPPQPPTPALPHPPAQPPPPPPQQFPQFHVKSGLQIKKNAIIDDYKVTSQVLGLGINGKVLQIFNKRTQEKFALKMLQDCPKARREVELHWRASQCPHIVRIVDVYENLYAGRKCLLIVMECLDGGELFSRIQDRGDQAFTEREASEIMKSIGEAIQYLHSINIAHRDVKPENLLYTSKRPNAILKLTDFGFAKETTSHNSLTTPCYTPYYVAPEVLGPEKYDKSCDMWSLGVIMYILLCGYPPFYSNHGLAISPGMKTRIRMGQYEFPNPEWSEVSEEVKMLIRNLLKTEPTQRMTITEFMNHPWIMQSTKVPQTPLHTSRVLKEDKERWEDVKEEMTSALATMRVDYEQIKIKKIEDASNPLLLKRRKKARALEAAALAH

SMILES | Dmax (MK2 [1]) | DC50 (MK2 [1]) | Dmax (MK2 [2]) | DC50 (MK2 [2]) | MK2 MSD SW 1353 24 h Dmax % (MK2 [2]) | MK2 MSD SW1353 degradation 24 h GMean External Abs DC50 (MK2 [2])
C[C@@H]1CNc2c(sc3ccc4nc(N5CCC(N6CC7(CCN(c8ccc9c(c8)n(C)c(=O)n9C8CCC(=O)NC8=O)CC7)C6)CC5)ccc4c23)C(=O)N1 (some centres unmarked) [Compound I-440] | > 75% | < 1 nM | > 75% | < 1 nM |  | 
C[C@@H]1CN(C)c2c(sc3ccc4nc(-c5ccc(N6CCC(CN7CCN(c8cccc9c(N%10CCC(=O)NC%10=O)cncc89)CC7)CC6)cc5)ccc4c23)C(=O)N1 [Compound I-261] | < 50% | > 100 nM | > 75% | 10 to 100 nM |  | 
O=C1CCN(c2cncc3c(N4CCN(CC5CCN(c6ccc(-c7cc(-c8cc9c([nH]8)CCNC9=O)ccn7)cc6)CC5)CC4)cccc23)C(=O)N1 [Compound I-198] | > 75% | 10 to 100 nM |  |  | — | —
Cn1c(=O)n(C2CCC(=O)NC2=O)c2cccc(CCCN3CCN(c4ccc(-c5cc(-c6cc7c([nH]6)C6(CCC6)CNC7=O)ccn5)cc4)CC3)c21 (centres unmarked) [Compound I-204] | > 75% | 1 to 10 nM |  |  | — | —
C[C@@H]1CNc2c(sc3ccc4nc(-c5cncc(N6CCN(C(=O)COCCOCCc7cccc8c7n(C)c(=O)n8C7CCC(=O)NC7=O)CC6)c5)ccc4c23)C(=O)N1 (some centres unmarked) [Compound I-100] | > 75% | 1 to 10 nM | > 75% | 1 to 10 nM |  | 
Cn1c(=O)n(C2CCC(=O)NC2=O)c2ccc(N3CCC(CN4CCN(c5cc(-c6cc(-c7cc8c([nH]7)CCNC8=O)ccn6)cc(C6CCCC6)c5)CC4)CC3)cc21 (centres unmarked) [Compound I-193] | < 50% | > 100 nM |  | > 100 nM | — | 
Cn1c(=O)n(C2CCC(=O)NC2=O)c2ccc(N3CC(CN4CCN(c5ccc(-c6cc(-c7cc8c([nH]7)C7(CC7)CNC8=O)ccn6)cc5)CC4)C3)cc21 (centres unmarked) [Compound I-189] | > 75% | < 1 nM | > 75% | < 1 nM |  | 
Cn1c(=O)n(C2CCC(=O)NC2=O)c2cccc(CCN3CCN(c4ccc(-c5cc(-c6cc7c([nH]6)C6(CC6)CNC7=O)ccn5)cn4)CC3)c21 (centres unmarked) [Compound I-200] | > 75% | 1 to 10 nM | > 75% |  |  | —
Cn1c(=O)n(C2CCC(=O)NC2=O)c2ccc(N3CCC(CN4CCN(c5cc(-c6ccccc6)cc(-c6cc(-c7cc8c([nH]7)CCNC8=O)ccn6)c5)CC4)CC3)cc21 (centres unmarked) [Compound I-224] | < 50% | > 100 nM | < 50% | > 100 nM |  | 
C[C@@H]1CNc2c(sc3ccc4nc(-c5cccc(C#CCCNC(=O)COCCOCCOCCOCCc6ccc7c(c6)n(C)c(=O)n7C6CCC(=O)NC6=O)c5)ccc4c23)C(=O)N1 (some centres unmarked) [Compound I-51] | > 75% | 1 to 10 nM | > 75% | 1 to 10 nM |  | 
Cn1c(=O)n(C2CCC(=O)NC2=O)c2ccc(N3CC(CN4CCN(c5ccc(-c6nccc(-c7cc8c([nH]7)C7(CC7)CNC8=O)n6)c(F)c5)CC4)C3)cc21 (centres unmarked) [Compound I-403, 3-(5-(3-((4-(3-fluoro-4-(4-(4′-oxo-1′,4′,5′,6′-tetrahydrospiro[cyclopropane-1,7′-pyrrolo[3,2-c]pyridin]-2′-yl)pyrimidin-2-yl)phenyl)piperazin-1-yl)methyl)azetidin-1-yl)-3-methyl-2-oxo-2,3-dihydro-1H-benzo[d]imidazol-1-yl)piperidine-2,6-dionee] | > 75% | < 1 nM | > 75% | < 1 nM |  | 
C[C@@H]1Cc2oc(-c3ccnc(-c4ccc(N5CCN(CC6CCN(c7ccc8c(c7)n(C)c(=O)n8C7CCC(=O)NC7=O)CC6)CC5)cc4)c3)cc2C(=O)N1 (some centres unmarked) [Compound I-208] | < 50% | > 100 nM | < 50% | > 100 nM |  | 
Cn1c(=O)n(C2CCC(=O)NC2=O)c2ccc(N3CCC(CN4CCN(c5ccc(-c6cc(-c7cc8c([nH]7)C7(CC7)CNC8=O)ccn6)cn5)CC4)CC3)cc21 (centres unmarked) [Compound I-243] | 50 to 75% | < 1 nM | > 75% | < 1 nM |  | 
CCc1cc(-c2cc(-c3cc4c([nH]3)CCNC4=O)ccn2)cc(CC)c1N1CCN(CC2CCN(c3ccc4c(c3)n(C)c(=O)n4C3CCC(=O)NC3=O)CC2)CC1 (centres unmarked) [Compound I-447] | < 50% | > 100 nM | 50 to 75% | 10 to 100 nM |  | 
Cn1c(=O)n(C2CCC(=O)NC2=O)c2ccc(CCCCCCN3CC4(CCN(c5ccc6c(c5)Cn5cc(-c7ccc(F)cc7)cc5-c5nccn5-6)C4)C3)cc21 (centres unmarked) [Compound I-168] | < 50% | > 100 nM | < 50% | > 100 nM |  | 
C[C@@H]1CNc2c(sc3ccc4nc(-c5ccc(C#CCCNC(=O)CCCCCCCc6ccc7c(c6)n(C)c(=O)n7C6CCC(=O)NC6=O)cc5)ccc4c23)C(=O)N1 (some centres unmarked) [Compound I-55] | > 75% | 1 to 10 nM | > 75% | 1 to 10 nM |  | 
COc1ccc2c(c1CCN1CCN(c3ccc(-c4cc(-c5cc6c([nH]5)C5(CC5)CNC6=O)ccn4)cc3)CC1)n(C)c(=O)n2C1CCC(=O)NC1=O (centres unmarked) [Compound I-430] | > 75% | < 1 nM | > 75% | < 1 nM |  | 
Cc1cnc(-c2ccnc(C(=O)NCCCCCCc3ccc4c(c3)n(C)c(=O)n4C3CCC(=O)NC3=O)n2)cc1-n1c(C)cc(OCc2ncc(F)cc2F)c(Cl)c1=O (centres unmarked) [Compound I-220] | < 50% | > 100 nM | < 50% | > 100 nM |  | 
Cn1c(=O)n(C2CCC(=O)NC2=O)c2cccc(CCN3CCN(c4ccc(-c5nccc(-c6cc7c([nH]6)C6(CC6)CNC7=O)c5F)cc4)CC3)c21 (centres unmarked) [Compound I-431] | < 50% | > 100 nM | 50 to 75% | 10 to 100 nM |  | 
C[C@@H]1CNc2c(sc3ccc4nc(-c5cccc(C#CCCNC(=O)CCCCCCCc6cccc7c6n(C)c(=O)n7C6CCC(=O)NC6=O)c5)ccc4c23)C(=O)N1 (some centres unmarked) [Compound I-48] | > 75% | 10 to 100 nM | > 75% | 1 to 10 nM |  | 

Now from value to compound:

Dmax (MK2 [1]) | DC50 (MK2 [1]) | Dmax (MK2 [2]) | DC50 (MK2 [2]) | MK2 MSD SW 1353 24 h Dmax % (MK2 [2]) | MK2 MSD SW1353 degradation 24 h GMean External Abs DC50 (MK2 [2]) | SMILES
> 75% | < 1 nM | > 75% | < 1 nM |  |  | Cc1cc(N2CCC(CN3CCN(c4ccc5c(c4)n(C)c(=O)n5C4CCC(=O)NC4=O)CC3)CC2)ccc1-c1ccc2c(ccc3sc4c(c32)NC[C@@H](C)NC4=O)n1 (some centres unmarked) [Compound I-298]
> 75% | 1 to 10 nM | > 75% | 1 to 10 nM |  |  | CCc1cc(-c2ccc3c(ccc4sc5c(c43)NC[C@@H](C)NC5=O)n2)cc(N2CCN(CC3CCN(c4ccc5c(c4)n(C)c(=O)n5C4CCC(=O)NC4=O)CC3)CC2)c1 (some centres unmarked) [Compound I-233]
> 75% | < 1 nM | > 75% | 1 to 10 nM |  |  | C[C@@H]1CNc2c(sc3ccc4nc(-c5cnc(N6CCN(CC7CCN(c8cccc9c8n(C)c(=O)n9C8CCC(=O)NC8=O)CC7)CC6)nc5)ccc4c23)C(=O)N1 (some centres unmarked) [Compound I-281]
> 75% | 1 to 10 nM | > 75% | 1 to 10 nM |  |  | C[C@@H]1CNc2c(sc3ccc4nc(-c5cc(N6CCC(CN7CCC(c8cccc9c8n(C)c(=O)n9C8CCC(=O)NC8=O)CC7)CC6)ccc5F)ccc4c23)C(=O)N1 (some centres unmarked) [Compound I-284]
> 75% | < 1 nM | > 75% | < 1 nM |  |  | C[C@@H]1CNc2c(sc3ccc4nc(-c5ccc([C@H]6CC[C@H](CN7CCN(c8ccc9c(c8)n(C)c(=O)n9C8CCC(=O)NC8=O)CC7)CC6)nc5)ccc4c23)C(=O)N1 (some centres unmarked) [Compound I-232]
> 75% | 1 to 10 nM | > 75% | 1 to 10 nM |  |  | C[C@@H]1CNc2c(sc3ccc4nc(-c5cc(N6CCC(CN7CCN(c8cccc9c8n(C)c(=O)n9C8CCC(=O)NC8=O)CC7)CC6)ccc5F)ccc4c23)C(=O)N1 (some centres unmarked) [Compound I-285]
> 75% | < 1 nM | > 75% | < 1 nM |  |  | C[C@@H]1CNc2c(sc3ccc4nc(-c5ccc(N6CCC(CN7CCC(c8cccc9c8n(C)c(=O)n9C8CCC(=O)NC8=O)CC7)CC6)cc5)ccc4c23)C(=O)N1 (some centres unmarked) [Compound I-98]
 | 1 to 10 nM |  | 10 to 100 nM | — |  | C[C@@H]1CNc2c(sc3ccc4nc(-c5cccc(C6CCN(CCN7CCC(CCc8cccc9c8n(C)c(=O)n9C8CCC(=O)NC8=O)CC7)CC6)c5)ccc4c23)C(=O)N1 (some centres unmarked) [Compound I-296]
> 75% | 1 to 10 nM | > 75% | 1 to 10 nM |  |  | C[C@@H]1CNc2c(sc3ccc4nc(-c5ccc(N6CCC(CN7CCN(c8cccc9c8n(C)c(=O)n9C8CCC(=O)NC8=O)CC7)CC6)cc5)ccc4c23)C(=O)N1 (some centres unmarked) [Compound I-315]
50 to 75% | 10 to 100 nM | 50 to 75% | 1 to 10 nM |  |  | C[C@@H]1CNc2c(sc3ccc4nc(N5C[C@H]6CC[C@@H]5CN6CC5CCN(c6cccc7c6n(C)c(=O)n7C6CCC(=O)NC6=O)CC5)ccc4c23)C(=O)N1 (some centres unmarked) [Compound I-452]
